Assay results reported in PMC6081452, “Downstream Products are Potent Inhibitors of the Heparan Sulfate 2-O-Sulfotransferase” (Scientific Reports, 2018).

Experiments:
non-glyc-HS2ST WT = target: T1, non-glyc-HS2ST WT (Gallus gallus, UniProt Q76KB1); test: Inhibition assay of the reaction between HS2ST and completely de-O-sulfated N-sulfated heparin ([35S]PAPS); assay type: biochemical, chicken; conditions: for IC50: p-nitrophenol-terminated hexasaccharides, substrate CDNS heparin 1 µg, [35S]PAPS, 37 °C, 1 h, n = 2 or 3
T1 construct: made in house; host or cells: E. coli Origami B (DE3)
T1 sequence (Q76KB1 69-356 limits assumed): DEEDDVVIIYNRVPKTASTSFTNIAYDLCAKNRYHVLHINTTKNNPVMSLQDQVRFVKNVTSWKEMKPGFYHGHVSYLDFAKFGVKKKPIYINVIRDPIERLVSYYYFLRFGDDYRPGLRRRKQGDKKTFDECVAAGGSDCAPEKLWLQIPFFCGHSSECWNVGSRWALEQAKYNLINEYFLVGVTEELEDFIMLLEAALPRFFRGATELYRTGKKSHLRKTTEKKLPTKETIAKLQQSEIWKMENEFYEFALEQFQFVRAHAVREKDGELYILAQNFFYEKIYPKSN
Procedure: Inhibition assays were thus performed with non-glyc-HS2ST and all compounds except for 1, the enzymatic substrate. […] Compound 5 appeared to inhibit at least as well as the product of the reaction (2); however, the IC50 was not reached even at the maximum substrate concentration (1 mM) for either 2 or 5. The addition of a single sulfate moiety enhanced the potency of the glycan as an inhibitor by ~10-fold (compare 3 and 4). The presence of both 2- and 3-O-sulfate moieties in the hexasaccharide (4) enhanced its inhibitory potential by approximately 100-fold relative to 5. These in vitro inhibition assays indicate that downstream products of the HS biosynthetic pathway could interfere with HS2ST catalysis in vivo.
The same glycan sequences were synthesized[62] for the inhibition assay as were used for the binding studies (Supplementary Table 1), except these terminated in p-nitrophenol rather than the PEG4-Biotin linker. The reaction mixture contained Tris pH 7.5 50 mM, 0.3 µg non-glyc-HS2ST WT, 0.08 nmol ^35S-labeled 3′-phosphoadenosine 5′-phosphosulfate ([^35S] PAPS) (3 × 10^4 cpm), completely de-O-sulfated N-sulfated heparin (CDNS heparin) 1 µg, and either compound 2, 3, 4 (0, 1, 2, 4, 8, and 16 µg) or 5 (2, 20, 60, and 160 µg) in a total volume of 0.1 ml. After incubation at 37 °C for 1 h, the reaction was quenched by adding 1 mL of 0.01% Triton X-100 buffer at pH 5.0 containing 150 mM NaCl, 50 mM NaOAc, 3 M urea and 1 mM ethylenediaminetetraacetic acid (EDTA). The samples were loaded on a small DEAE column (200 µl in size). The column was then washed five times with the same buffer, each time 1 ml. The column was further washed five times with 0.25 M NaCl in 0.001% Triton X-100 buffer each time 1 ml. The column was eluted with 1 ml of 1 M NaCl in 0.001% Triton X-100 buffer. The ^35S cpm of the eluted samples were tested the by a scintillation counter.

[1] = target: T2, non-glyc-HS2ST (non-glycosylated chicken HS2ST), WT (Gallus gallus, UniProt Q76KB1); test: BLI equilibrium binding, non-glyc-HS2ST WT; conditions: BLI saturation binding curves, biotin-PEG4-linked hexasaccharide on sensor, n = 3, ± standard error of fit; — = response too weak to fit
T2 construct: made in house; host or cells: E. coli Origami B (DE3)
T2 sequence (Q76KB1 69-356 limits assumed): T1 sequence (Q76KB1 69-356 limits assumed)
Description: HS-protein binding studies often utilize biologically-derived oligosaccharides of heterogeneous length and sulfation[34],[35]; however, the synthesis of oligosaccharides with defined length and specific sulfation patterns has recently become possible. We employed biolayer interferometry (BLI) to determine equilibrium surface binding constants (KD) for HS2ST with synthetic HS hexasaccharides (Fig. 1 and Supplementary Table 1). The HS compounds were attached to the BLI biosensor surface to conserve sample and to ensure a significant signal upon protein binding. The HS compounds contained a biotinylated PEG4 linker at the reducing terminus, enhancing the likelihood of a consistent presentation of the linear glycan on the sensor surface, in contrast to immobilizations via intra-chain modifications.
Binding constants were collected for two isoforms of the enzyme; a glycosylated human variant (glyc-HS2ST) expressed in mammalian cell lines, and a highly homologous (96% identity) non-glycosylated chicken isoform expressed in E. coli (non-glyc-HS2ST). […] Thus, the enhanced ligand affinity seen in HS2ST was unexpected and may relate to the specific position of the glycosylation site (N108)[41].
The chicken HS2ST-Maltose Binding Protein (MBP) fusion protein was expressed and purified according to previous studies. The fusion protein was transformed into E. coli Origami B (DE3) cells, cultured at 37 °C until OD600 reached 0.5, then induced with isopropyl-β-D-thiogalactopyranoside and allowed to grow overnight at 20 °C. Cells were sonicated, followed by a two-step purification procedure. Whole-cell supernatant was passed through an amylose column with Tris buffer (25 mM Tris, 500 mM NaCl, pH 7.5). An elution buffer consisted of Tris Buffer with 40 mM Maltose. The amylose column eluent was concentrated and loaded on a Superdex 200 Increase 10/300 GL with PBS buffer (10 mM sodium phosphate, 150 mM NaCl, pH 7.8) to separate trimeric protein from aggregate and independent MBP (Supplementary Fig. 4). All reported mutations formed homotrimeric complexes according to the SEC profiles, including the negative control (NC = R189A/R80E/R184E). Protein concentration was assessed via UV at 280 nm (MW of trimer ~210 KDa, extinction coefficient ~119,000 M^−1 cm^−1 according to ExPASy ProtParam webtool[56]). The trimeric protein preparation was adjusted to 5% glycerol and stored at −20 °C until use. Additional non-glyc-HS2ST constructs were created with the Q5® Mutagenesis kit (New England Biolabs Inc.; cat. # E0554S) and sequenced at the Georgia Genomics Facility at the University of Georgia.
The Octet® RED96 system (FortéBio Inc.) was employed to detect the affinity of the enzymes for specific HS targets. Due to the small size of the glycan and the deep HS2ST binding cavity, the glycan and protein were treated as ligand and analyte, respectively. Varyingly sulfated HS fragments conjugated to biotin linkers were purchased from Glycan Therapeutics Inc. with purities greater than 93% according to HPLC (sequences located in Supplementary Table 1). The glycans were immobilized onto streptavidin (SA) labeled biosensors (FortéBio; cat. #18–5019) at 0.5 µg/mL. Experiments were performed at 25 °C in PBS Buffer (10 mM sodium phosphate, 150 mM NaCl, pH 7.8) with a final concentration of 1X Pall Kinetics buffer (FortéBio Inc; cat. #18–1092). Fresh biosensors and protein samples were used for each measurement (no regeneration step). […]

Row | Substance | IC50 (non-glyc-HS2ST WT) [µM] | Kd [1] [µM] | Enhancement of inhibitory potential relative to 5 (non-glyc-HS2ST WT; 4 relative to 5) | Enhancement of inhibitory potency by addition of a single sulfate moiety (compare 3 and 4) (non-glyc-HS2ST WT; 4 versus 3)
1 | GlcNS-GlcA-GlcNS-IdoA2S-GlcNS-GlcA~ [Compound 2] | > 1000 | > 0.5 | – | –
2 | GlcNS6S-GlcA-GlcNS6S-IdoA2S-GlcNS6S-GlcA~ [Compound 3] | – | 0.042 ± 0.005 | – | –
3 | GlcNS6S-GlcA-GlcNS6S-GlcA-GlcNS6S-GlcA~ [Compound 5] | > 1000 | 0.072 ± 0.008 | – | –
4 | GlcNS6S-GlcA-GlcNS3S6S-IdoA2S-GlcNS6S-GlcA~ [Compound 4] | – | 0.013 ± 0.003 | approximately 100 fold | ~ 10 fold
